Experimental data taken from US20080075788A1, “DIAMMONIUM PHOSPHATE AND OTHER AMMONIUM SALTS AND THEIR USE IN PREVENTING CLOTTING” (priority 2006, published 2008).
Where two headings read alike, the source gives them in different places.

Key:
human plasma = conditions: for effect on the clotting time of human plasma: APTT test; for APTT Average: average of subjects
Procedure: (§1) Coagulation time of fresh whole blood can be determined with the Lee-White test by visually observing clot formation. Activation of the intrinsic coagulation pathway can be determined by measuring the activated partial thromboplastin time (APTT) as for example, shown in the FIGURE. In this test, the time to formation of a fibrin clot in re-calcified citrated plasma is measured using a coagulation analyzer instrument.
Clotting times of plasma samples were measured using the Amelung KC 4 A™ micro coagulation analyzer (Sigma Diagnostics, Germany). A cuvette was placed into a rotating well of the analyzer and a small stainless steel ball was dispensed into the cuvette. 100 μL of Pathromtin SL reagent were dispensed into the cuvette and then 100 μL of human plasma were added. For trials with the solution, 10 μL of water or of a solution dilution were added. After 2 minutes of incubation, 100 μL of CaCl2 were dispensed into each cuvette. The analyzer timer was started immediately and clotting time was recorded when the timer stopped.
On each day, control plasma N (normal) and control plasma P (abnormal/prolonged) were tested for quality control. At least two identical samples (duplicates) were tested simultaneously for each trial. The means and percent differences between duplicates were calculated. If the difference between duplicates was twenty percent or less, that trial's data was used for further analysis.

whole sheep blood = conditions: liquid component added to blood, versus control
Procedure: as §1

[1] = listed as diammonium phosphate solution

N.N.O=P(O)(O)O [Sample A liquid, diammonium hydrogen-phosphate]
effect on the clotting time of human plasma (human plasma; listed as diammonium hydrogen-phosphate solution): prolongs the clotting time of human plasma | effect on the clotting time of human plasma (human plasma; [1]): delay and/or prevent clotting | APTT Average (human plasma; NH4 Conc. 10 mM in the 310 μL total volume): 42.7 s | Subject APTT (human plasma; NH4 Conc. 10 mM in the 310 μL total volume, subject 1): 49.8 s | Subject APTT (human plasma; NH4 Conc. 10 mM in the 310 μL total volume, subject 2): 36.5 s | Subject APTT (human plasma; NH4 Conc. 10 mM in the 310 μL total volume, subject 3): 42.6 s | Subject APTT (human plasma; NH4 Conc. 10 mM in the 310 μL total volume, subject 4): 42.9 s | Subject APTT (human plasma; NH4 Conc. 10 mM in the 310 μL total volume, subject 5): 47.9 s | Subject APTT (human plasma; NH4 Conc. 10 mM in the 310 μL total volume, subject 6): 39.0 s | Subject APTT (human plasma; NH4 Conc. 10 mM in the 310 μL total volume, subject 7): 32.5 s | Subject APTT (human plasma; NH4 Conc. 10 mM in the 310 μL total volume, subject 8): 50.9 s | APTT Average (human plasma; NH4 Conc. 20 mM in the 310 μL total volume): 50.8 s | Subject APTT (human plasma; NH4 Conc. 20 mM in the 310 μL total volume, subject 1): 64.5 s | Subject APTT (human plasma; NH4 Conc. 20 mM in the 310 μL total volume, subject 2): 46.3 s | Subject APTT (human plasma; NH4 Conc. 20 mM in the 310 μL total volume, subject 4): 47.3 s | Subject APTT (human plasma; NH4 Conc. 20 mM in the 310 μL total volume, subject 5): 62.2 s | Subject APTT (human plasma; NH4 Conc. 20 mM in the 310 μL total volume, subject 6): 38.0 s | Subject APTT (human plasma; NH4 Conc. 20 mM in the 310 μL total volume, subject 7): 37.7 s | Subject APTT (human plasma; NH4 Conc. 20 mM in the 310 μL total volume, subject 8): 59.7 s | APTT Average (human plasma; NH4 Conc. 30 mM in the 310 μL total volume): 67.6 s | Subject APTT (human plasma; NH4 Conc. 30 mM in the 310 μL total volume, subject 1): 79.8 s | Subject APTT (human plasma; NH4 Conc. 30 mM in the 310 μL total volume, subject 2): 52.8 s | Subject APTT (human plasma; NH4 Conc. 30 mM in the 310 μL total volume, subject 3): 64.2 s | Subject APTT (human plasma; NH4 Conc. 30 mM in the 310 μL total volume, subject 4): 64.6 s | Subject APTT (human plasma; NH4 Conc. 30 mM in the 310 μL total volume, subject 5): 86.9 s | Subject APTT (human plasma; NH4 Conc. 30 mM in the 310 μL total volume, subject 6): 58.5 s | Subject APTT (human plasma; NH4 Conc. 30 mM in the 310 μL total volume, subject 7): 57.5 s | Subject APTT (human plasma; NH4 Conc. 30 mM in the 310 μL total volume, subject 8): 76.4 s | APTT Average (human plasma; NH4 Conc. 40 mM in the 310 μL total volume): 185.2 s | Subject APTT (human plasma; NH4 Conc. 40 mM in the 310 μL total volume, subject 1): 236.5 s | Subject APTT (human plasma; NH4 Conc. 40 mM in the 310 μL total volume, subject 4): 154.4 s | Subject APTT (human plasma; NH4 Conc. 40 mM in the 310 μL total volume, subject 5): 186.2 s | Subject APTT (human plasma; NH4 Conc. 40 mM in the 310 μL total volume, subject 6): 111.9 s | Subject APTT (human plasma; NH4 Conc. 40 mM in the 310 μL total volume, subject 7): 166.2 s | Subject APTT (human plasma; NH4 Conc. 40 mM in the 310 μL total volume, subject 8): 255.8 s | effect on the Lee-White clotting time of whole sheep blood (whole sheep blood; listed as Sample A liquid component): prolonged | effect on the Lee-White clotting time of whole sheep blood (whole sheep blood; [1]): delay and/or prevent clotting | effect on clotting in whole human blood (whole human blood): delay and/or prevent clotting
